Data on 6 compounds can be found in patent US20060165761A1, “Wound dressings comprising vanadate complexed with organic ligands” (priority 2002, published 2006).

In assay [1] the test system is Adult dermal fibroblasts. Kind of assay: XTT cell proliferation assay. It is filed as cell-based. The settings on record: for amount of fibroblast proliferation (FIG. 2): 72 hrs; for ability to stimulate cell proliferation (overall summary): absence of growth factors. On the procedure:
(§1) Adult dermal fibroblasts were grown until 95% confluent, trypsinized (2 ml trypsin plate) to prepare a single suspension of fibroblasts. These cells were diluted in DMEM (+10% FBS) media and diluted to a concentration of 25000 cells/ml. […] was placed in each well of a 96 well microplate (2500 cells/well). The fibroblasts were allowed to adhere and spread by incubating for 24 hours (at 37° C., 5% CO2 in a humidified atmosphere) at which point the media was removed and replaced with serum free DMEM+/−stimulant/sample.
(§2) The following vanadate complexes were added in quadruplicate: bpV(pic) was added to a final concentration of 8.14 and 0.81 μM, bpV(bipy) (bisperoxo(bipyridine)oxovanadate) was added to a final concentration of 178 and 17.8 μM. bpV(phen) was added to a final concentration of 12 or 0.124 μM, DMHV (bis-dimethylhydroxamido vanadate, (Me2N—O)2VO(OH)) was added to a final concentration of […]. The vanadate complexes were all obtained as the solid potassium salts from Calbiochem, Catalog numbers 203705, 322130, and 203695.
Negative control samples were untreated and positive control samples were cells treated with DMEM containing 10% FBS or 0.15 ng/ml epidermal growth factor. As a further positive control, Dephostatin (a known tyrosine protein phosphatase inhibitor obtained from Calbiochem, catalog number 263200) was added to a final concentration of 23.8 μM. […]
After 72 hrs the fluid was aspirated off and […] of the XTT labelling mixture (prepared by adding 0.1 ml Electron coupling reagent to every 5 mls of XTT labelling reagent) was added to each well. The plates were read at 450 nm, using a MR5000 plate reader at 2, 2.5 and 3.5 hrs.
Background: Tetrazolium dyes change colour on reduction, which living cells bring about.

Assay [2] concerns Adult dermal fibroblasts. Kind of assay: Determination of collagen levels (ELISA) deposited by fibroblasts. It is filed as cell-based. The settings on record: for ability to stimulate collagen deposition (overall summary): absence of growth factors. On the procedure:
as §1, §2
Negative control samples were untreated and positive control samples were cells treated with DMEM containing 10% FBS or 0.15 ng/ml epidermal growth factor. As a further positive control, Dephostatin (a known tyrosine protein phosphatase inhibitor obtained from Calbiochem, catalog number 263200) was added to a final concentration of 23.8 μM.
Additional experiments were performed using the phosphatase inhibitors indicated above in the presence of epidermal growth factor (0.015 ng/ml) or platelet derived growth factor (6 ng/ml).
The amount of collagen produce and deposited into the extracellular environment under each experimental condition was measured using an ELISA method. Collagen type I standards (Sigma cat no 7774, lot 32K3775) and material aspirated from the fibroblasts were coated onto 96 well plates (FALCON 3072) by incubation at 37° C. for 30 min. Non-specific sites were blocked by the addition of […] of 5% solution of bovine serum albumin (BSA) for 30 min. Each well was incubated with a monoclonal antibody against collagen used at a dilution of 1/2000 ((sigma cat no. 2456, lot 081K4897) overnight at 4° C. Samples were washed five times for 5 minutes in wash buffer (PBS+0.05% (v/v) TWEEN-20) and incubated with an HRP-conjugated second antibody against mouse IgG at a dilution of 1/10000 for 2 hr. Each well was washed five times in wash buffer. Deposited collagen was detected using the Sigma FAST method used according to the manufacturers instructions. The plates were incubated at room temperature for 30 minutes and read using a MR5000 plate reader at 450 nm.
(In an ELISA, binding on a coated surface is turned into a signal by an enzyme label.)

The test system of the next assay is bone cell. The settings on record: in vitro; cited from earlier work.
Assay [3] deals with capillary endothelial cells. The following applies: in vitro; mimics fibroblast growth factor; cited from earlier work.
For another assay, the system named is acute wounds in rats. The following applies: vanadate ingestion; cited from earlier work.

As for “bisperoxo(bipyridine)oxovanadate [bpV(bipy)]”, in the assay with Adult dermal fibroblasts [1] (17.8 μM, compared to negative control), the “amount of fibroblast proliferation (FIG. 2)” value (shortened to “amount … (FIG. 2)”) is “greater than the negative control”. For the same compound, in the assay on Adult dermal fibroblasts [2] (17.8 μM, compared to positive control), the “amount of collagen deposited by fibroblasts (FIG. 1)” value (“amount of collagen deposited” below) is “equivalent to the positive control”.

Regarding “Bisperoxo (5-hydroxy pyridine-2-carboxyvanadate) [bpV(pic)]”, the “amount … (FIG. 2)” value with Adult dermal fibroblasts [1] (8.14 μM, compared to non treated negative control and FBS and EGF positive controls) is “most effective activator cell proliferation”. The “amount of fibroblast proliferation (FIG. 3)” value in the assay with Adult dermal fibroblasts [1] (8.14 μM, compared to non treated and vanadate at 0.1 and 0.01 mmolar) is “more effective activator of cell proliferation”. For the same compound, the “ability to stimulate cell proliferation (overall summary)” value (shortened to “ability to stimulate cell proliferation”) with Adult dermal fibroblasts [1] is “more effective than even the 10% FBS positive control”. Besides, in the assay on Adult dermal fibroblasts [2] (8.14 μm, compared to non treated negative control and FBS and EGF positive controls), the “amount of collagen deposited” value was “most effective activator of collagen deposition”. The “ability to stimulate collagen deposition (overall summary)” value (“ability to stimulate collagen deposition” for short) with Adult dermal fibroblasts [2] is “more effective than even the 10% FBS positive control”.

With `[Na+].[Na+].[Na+].[O]=[V]([O-])([O-])[O-]` [vanadate, Sodium Orthovanadate], in the assay with bone cell, the bone cell proliferation entry is “stimulates” and the bone collagen synthesis result was “stimulates”. For the same compound, the “endothelial cells invade collagen matrices and organise into tubules” value in assay [3] was “stimulates endothelial cells to invade collagen matrices and organise into tubules”. Further, in the assay with acute wounds in rats, the “gain in wound breaking strength” value is “increases” and the “organisation of collagen fibres during healing” value was “better organised collagen fibres”.

In the case of `[O-2].[O-][O-].[O-][O-].[V+5].c1cnc2c(c1)ccc1cccnc12` [bpV(phen), bisperoxo-(1,10-phenanthroline)-oxovanadate], the results for the “ability to stimulate cell proliferation” value in the assay with Adult dermal fibroblasts [1] (listed as bpV (Phen)), with Adult dermal fibroblasts [1] (listed as bpV (phen)) and in the assay on Adult dermal fibroblasts [1] (listed as bpV(Phen)) were “inhibitor of proliferation”, “exception” and “does not enhance”, respectively. Further, the “ability to stimulate collagen deposition” value in the assay with Adult dermal fibroblasts [2] (listed as bpV (phen)) is “exception”; in the assay with Adult dermal fibroblasts [2] (listed as bpV(Phen)), “does not enhance”.

As for `CN(C)[O][V](=[O])([OH])[O]N(C)C` [DMHV, bis-dimethylhydroxamido vanadate, (Me2N—O)2VO(OH)], the “amount … (FIG. 2)” value in the assay with Adult dermal fibroblasts [1] (64 μM, compared to negative control) was “greater than the negative control”. Also, the “ability to stimulate cell proliferation” value in the assay with Adult dermal fibroblasts [1] was “equivalent to the DMHV positive control”. In addition, the “amount of collagen deposited” value in the assay on Adult dermal fibroblasts [2] (6.4-64 μM, compared to positive control) is “equivalent to the positive control”. In addition, the “ability to stimulate collagen deposition” value with Adult dermal fibroblasts [2] is “equivalent to the DMHV positive control”.

For `CN(N=O)c1cc(O)ccc1O` [Dephostatin, reference compound], the “amount … (FIG. 2)” value in the assay on Adult dermal fibroblasts [1] (23.8 μM, compared to negative control) is recorded as “greater than the negative control”. Also, the “amount of collagen deposited” value with Adult dermal fibroblasts [2] (23.8 μM, compared to positive control) is given as “equivalent to the positive control”.
